Experimental data taken from patent US6495594B2, “Biologically active analogs of discodermolide” (Harbor Branch Oceanographic Institution, Inc., priority 2000, dated 2002).
“Also recorded” adds a separate entry of the source.

Legend:
Assay type in all cases: cell-based
[1] = test system: P388 murine leukemia cell lines; test: In vitro proliferation of P388 cells (MTT); settings: 48-h exposure; for IC50: value in parentheses
Procedure: Discodermolide and discodermolide analogs were analyzed as to their effects on proliferation of A549 human adenocarcinoma and P388 murine leukemia cell lines. P388 cells were obtained from Dr. R. Camalier, National Cancer Institute, Bethesda, MD, and A549 cells were obtained from American Type Culture Collection, Rockville, MD. All cell lines were maintained in tissue culture medium (TCM; Roswell Park Memorial Institute RPMI 1640 supplemented with 100 U/mL penicillin, […], 60 […], 18 mM HEPES, 0.05 mg/mL gentamicin (Life Technologies, Gaithersburg, MD) and 10% fetal bovine serum) and cultured in plastic tissue culture flasks at 37° C. in humidified air containing 5% CO2. Stock cultures of P388 cells were subcultured 1:20 in fresh TCM every 2 to 3 days. Stock cultures of A549 cells were subcultured 1:10 every 3 to 4 days. To assess the antiproliferative effects of agents against the cells, 200 μL cultures (96-well tissue culture plates, Nunc, Denmark) were established at 1 ×10^5 cells/mL in TCM or TCM containing the test agent at 0.03-5.0 μg/mL. After 48-h exposures, P388 cells were enumerated using 3-[4,5-dimethylthiazol-2-yl]-2,5-diphenyltetrazolium bromide (MTT) as described in the literature (M. C. Alley, et al., Cancer Res. 48:589, 1988). A549 cells were enumerated in the same manner after 72 hours exposure. The results were expressed as percent inhibition compared to the negative (no drug) control. Positive drug controls of varying dilutions of 5-fluorouracil and adriamycin (Sigma Chemical Co., St Louis, MO) were included to monitor drug sensitivity of the cell line.
To quantitate the effects on cell proliferation and resulting IC50 values, 75 μL of warm growth media containing 5 mg/mL MTT is added to each well, cultures returned to the incubator, and left undisturbed for 3 hours. To spectrophotometrically quantitate formation of reduced formazan, plates are centrifuged (500×g, 10 minutes), culture fluids removed by aspiration, and 200 μL of acidified isopropanol (2 mL concentrated HCl /liter isopropanol) added per well. The absorbance of the resulting solutions is measured in a plate reader (TECAN Spectra SLT; TECAN U.S., Research Triangle Park, N.C.) at 570 nm and a 650 nm reference filter. The absorbance of test wells is divided by the absorbance of drug-free wells, and the concentration of agent that results in 50% of the absorbance of untreated cultures (IC50) is determined by linear regression of logit-transformed data (D. J. Finney, Statistical Method in Biological Assay, third ed., pp. 316-348, Charles Griffin Co., London, 1978). A linear relationship between tumor cell number and formazan production has been routinely observed over the range of cell densities observed in these experiments. The two standard drug controls (indicated above) are included in each assay as a check to monitor the drug sensitivity of each of the cell lines and IC50 values are determined for each drug-cell combination.

[2] = test system: A549 human adenocarcinoma tumor cells; test: Microtubule bundling patterns in tumor cells by immunofluorescence; design: key to Microtubule bundling in A549 cells: −: no effect; +/−: minimal or questionable effect; +: weak effect; ++: strong effect; +++: very strong effect equivalent to discodermolide; settings: for Microtubule bundling in A549 cells: subjective rating versus discodermolide
Procedure: Discodermolide and discodermolide analogs were evaluated as to their effects on the morphology of the microtubule network of cells using mouse anti-alpha-tubulin monoclonal antibody.
On day one, 7×10^4 adherent A549 human adenocarcinoma tumor cells were cultured in TCM overnight at 37° C. in 5% CO2 on 22 mm^2 cover slips in 6-well microtiter plates. On day two, TCM was removed and replaced with 10-1000 nM discodermolide or analog in TCM or TCM without drug (control) and incubated overnight at 37° C. in 5% CO2. On day three, TCM was removed and cells attached to cover slips were fixed with a 3.7% formaldehyde solution in Dulbecco's PBS for 10 minutes at room temperature. Cells were permeabilized with a 2% Triton X-100 solution, 2 mL per well, for 5 minutes at room temperature and washed twice in Dulbecco's PBS prior to staining.
To each well containing cells attached to cover slips a 2 mL volume of mouse anti- alpha-tubulin monoclonal antibody (Cat# T-5168, Sigma Chemical Co., St. Louis, Mo.) diluted 1:1000 in Dulbecco's phosphate buffered saline (D-PBS) was added and the cells incubated at room temperature for 45 minutes. Cover slips were rinsed once with D-PBS. A 2 mL volume of goat-anti-mouse-IgG-FITC conjugated antibody (Cat# T-5262, Sigma Chemical Co., St. Louis, Mo.) diluted 1:1000 in D-PBS was added and the cells incubated at room temperature for 45 minutes. Cover slips were rinsed once in D-PBS and DNA was stained with 0.02 mg/mL propidium iodide together with 0.1 mg/mL of ribonuclease A (RNAse) A in D-PBS at 37° C. for 30 minutes. Cover slips were rinsed three times with sterile distilled water, air-dried and mounted on slides with SlowFade™ antifade solution (Molecular Probes, Eugene, Oreg.) and observed under the microscope using epifluorescence illumination for the presence of abnormal aster and microtubule bundle formations.

A549 human lung cells = test: Cell cycle progression by flow cytometry
Procedure: Cell cycle studies were initiated in order to pinpoint a specific phase within the cell cycle in which discodermolide analogs were exerting their antiproliferative effect. A549 human lung cells were used as cell cycle targets to compare the effects of discodermolide and discodermolide analogs on perturbation of the cell cycle. Cell cycle analyses were performed as follows: A549 cells were incubated at 37° C. in 5% CO2 in air in the presence or absence of varying concentrations of discodermolide or discodermolide analogs for 24 hr. Cells were harvested, fixed in ethanol, washed, and stained with 0.02 mg/mL of propidium iodide (P.I.) together with 0.1 mg/mL of RNAse A. Stained preparations were analyzed on a Coulter EPICS ELITE flow cytometer with 488 nm excitation. Fluorescence measurements and resulting DNA histograms were collected from at least 10,000 P.I. stained cells at an emission wavelength of 690 nm. Raw histogram data was further analyzed using a cell cycle analysis program (Multicycle, Phoenix Flow Systems).

Compound	IC50 P388 cells [1]	IC50 [1]	Microtubule bundling observation ([2]; 100 nM)	Microtubule bundling observation ([2]; 1000 nM)	Discodermolide concentration giving equivalent morphological changes ([2]; analog at 100 nM)	Discodermolide concentration giving equivalent morphological changes ([2]; analog at 1000 nM)	Microtubule bundling in A549 cells ([2]; Table 11)	Cell cycle effects (A549 human lung cells; concentration not given)	Cells with multiple aster formations, share of the population undergoing mitosis ([2]; 100 nM)	Microtubule bundling observation ([2]; 10 nM)	Microtubule bundling in A549 cells ([2]; Table 12)	Cell population accumulated in the G2/M phase (A549 human lung cells; 1000 nM, 24 hour incubation)	Cell cycle effects (A549 human lung cells; concentrations lower than 1000 nM)	Cell cycle effects (100 nM) (A549 human lung cells; 100 nM, 24 hr, A549)
C=CC=CC(C)C(OC(N)=O)C(C)C(O)C(C)CC(C)=CC(C)C(O)C(C)C=CC(O)CC1OC(=O)CC(O)C1C (stereo not shown) [2-Desmethyldiscodermolide (II), 2-desmethyldiscodermolide]	0.1 µg/mL	172 nM	Some thin or short peripheral microtubule bundling	extensive microtubule bundling	20-50 nM	1000 nM	+++	very strong apoptotic (sub-G1 peak) effects as well as an increase in the percentage of cells residing in the G2/M phase						
C=C/C=C\[C@H](C)[C@H](OC(N)=O)[C@@H](C)[C@H](O)[C@@H](C)C/C(C)=C\[C@H](C)[C@@H](O)[C@@H](C)/C=C\[C@@H](O)C[C@@H]1OC(=O)[C@@H](C)[C@@H](O)[C@H]1C [2-Epidiscodermolide (IV), 2-epidiscodermolide]	0.08 µg/mL	134 nM	no microtubule matrix bundling	Some minor, peripheral, polymerization of microtubule matrix		~20 nM	+	Apoptosis and weak G2/M block	less than 10%					
CCCCC(C)C(OC(N)=O)C(C)C(O)C(C)CC(C)=CC(C)C(O)C(C)CCCCC1OC(=O)C(C)C(O)C1C (stereo not shown) [7-deoxy-8,21,23-hexahydrodiscodermolide]	0.18 µg/mL	309 nM	small amount of microtubule bundling visible in some cells	strong microtubule bundling	~10 nM	100 nM				no visible effect on the microtubule matrix	++	Approximately 50%	did not produce any cell cycle effects	
CCCCC(C)C(OC(N)=O)C(C)C(O)C(C)CC(C)=CC(C)C(O)C(C)CCC(O)CC1OC(=O)C(C)C(O)C1C (stereo not shown) [8,21,23-Hexahydrodiscodermolide (XII), 8,21,23-hexahydrodiscodermolide]	0.02 µg/mL	33.8 nM	Microtubule bundling was evident	Microtubule bundling was evident							++			small percent increase in the cells accumulated at the G2/M phase; also recorded: high percentage of apoptosis
C=CC=CC(C)C(O)C(C)C(O)C(C)CC(C)=CC(C)C(O)C(C)C=CC(O)CC1OC(=O)C(C)C(O)C1C (stereo not shown) [19-Desaminocarbonyldiscodermolide (III), 19-desaminocarbonyldiscodermolide]	0.07 µg/mL	128 nM	some microtubule bundling	moderate amount of microtubule bundling	10-20 nM	50-100 nM	++	Strong apoptosis; moderate G2/M block						
